We go through one compound from patent US11091522B2, “Peptidomimetic macrocycles and uses thereof” (priority 2018, dated 2021).

Data set [1] can be described thus: Safety pharmacology, cardiac function. Format: in vivo. As to conditions: cynomolgus monkeys.
Data set [2] is described as follows: Pharmacokinetics of AP1 and palbociclib in non-tumor-bearing nu/nu mice.
Another data set deals with SW-480. The data set is described as follows: Cell viability assay (MTT), SW-480. The data set is classed as cell-based. As to conditions: SW480 cells, colorectal cancer cell line with mutated p53.
Data set [3] in a line: In vitro metabolite profile, cryopreserved hepatocytes. The data set is classed as in vitro ADME, mouse, rat, monkey, human. Particulars: similar metabolite profile across species.
Another data set relates to Caspase 3. Description: Caspase 3 detection assay in SJSA-1 cells. Format: cell-based, human. As to conditions: SJSA-1 osteosarcoma cells. On the procedure:
One the day of the assay, the media was replaced with fresh RPMI-11% FBS assay media. […] Control wells contained no cells, and received 200 μL of the assay media.
The solutions were serially diluted 33.3 times using sterile water to provide a range of 10× working stock solutions. […] 20 μL of the 10× working stock solutions were added to the appropriate wells. Row H of the plates had control wells. Wells H1-H3 received 20 μL of the assay media. […] Wells H10-H12 received media and had no cells. […] Nutlin-3a was diluted using the same dilution scheme as the peptides.
10 μL of the 10× stock solutions were added to the appropriate wells to achieve the final concentrations in a total volume of 100 μL. […] 48 h after incubation, 80 μL of the media was aspirated from each well. 100 μL of Caspase 3/7Glo assay reagent was added to each well. […] Data were analyzed as Caspase 3 activation over DMSO-treated cells.

Where [4] appears, read: nu/nu, mouse, in vivo, 20 mg/kg.

Protocol for SW-480: Cells were trypsinized, counted, and seeded at pre-determined densities in 96-well plates one day prior to conducting the cell viability assay. […] 180 μL of the assay media was added to each well. Control wells were prepared with no cells, and the control wells received 200 μL of media.
Peptide dilutions were made at room temperature, and the diluted peptide solutions were added to the cells at room temperature. 10 mM stock solutions of the peptides were prepared in DMSO. […] A DMSO/sterile water (3% DMSO) solution was prepared for use in the control well. The working stock solution concentrations ranges were 300 μM, 100 μM, 30 μM, 10 μM, 3 μM, 1 μM, 0.3 μM, and 0 μM. The solutions were mixed well at each dilution step using a multichannel pipette.
Row H of the plate contained the controls. Wells H1-H3 received 20 μL of assay media. Rows H4-H9 received 20 μL of the 3% DMSO-water vehicle. Wells H10-H12 received media alone control with no cells.
20 μL of a 10× concentration peptide stock solution was added to the appropriate well to achieve the final concentration in 200 μL in each well. […]
The viability of the cells was determined using MTT reagent. The viability of SJSA-1, RKO, RKO-E6, HCT-116 cells was determined on day 3. The viability of MCF7 cells was determined on day 5. The viability of SW-480 cells was determined on day 6. […] Cell viability was analyzed against the DMSO controls.

In the case of `CC(=O)N[C@@H](CC(C)C)C(=O)N[C@H](C(=O)N[C@@H](Cc1ccccc1)C(=O)N[C@]1(C)CCCCCC/C=C\CCC[C@@](C)(C(=O)N[C@@H](C)C(=O)N[C@@H](C)C(=O)N[C@@H](C)C(=O)N[C@@H](C)C(=O)N[C@@H](C)C(=O)N[C@H](C)C(N)=O)NC(=O)[C@H](CC(C)C)NC(=O)[C@H](CCC(N)=O)NC(=O)[C@H](C)NC(=O)[C@H](Cc2c[nH]c3ccccc23)NC(=O)[C@H](Cc2ccc(O)cc2)NC(=O)[C@H](CCC(=O)O)NC1=O)[C@@H](C)O` [AP1], the “effects on cardiac function” value in data set [1] was “No significant adverse findings”. Moreover, the “effect of co-administration on PK” value in data set [2] (non-tumor-bearing nu/nu mice) is reported as “not affected by palbociclib”. Further, in data set [2] (setting [4]), the AUC(0-t) (usually exposure summed from dosing to a finite time, without extrapolation to infinity) was found to be 686 µg·h/mL and the Cmax (commonly the maximum level reached in the sampled fluid or tissue) came out at 138 µg/mL. For the same compound, the cell viability entry in the data set on SW-480 is on record as “did not affect cell viability”. In addition, the major biotransformation pathway result in data set [3] is reported as “Proteolysis”. In the data set with Caspase 3, the cellular caspase activity result is “increases in cellular caspase activity”.
